The values below come from patent US5310729A, “Interferon-related polypeptides as CR2 ligands and their use for modulating immune cell functions” (California Institute of Biological Research, priority 1990, dated 1994).

Ends that are not written are not given here.

Test [1] concerns the target T1, native CR2 present on Raji cells (Homo sapiens, UniProt P20023).
T1 construct: native CR2 present on Raji cells; endogenous in cells; host or cells: Raji cells
T1 sequence (P20023 21-1033): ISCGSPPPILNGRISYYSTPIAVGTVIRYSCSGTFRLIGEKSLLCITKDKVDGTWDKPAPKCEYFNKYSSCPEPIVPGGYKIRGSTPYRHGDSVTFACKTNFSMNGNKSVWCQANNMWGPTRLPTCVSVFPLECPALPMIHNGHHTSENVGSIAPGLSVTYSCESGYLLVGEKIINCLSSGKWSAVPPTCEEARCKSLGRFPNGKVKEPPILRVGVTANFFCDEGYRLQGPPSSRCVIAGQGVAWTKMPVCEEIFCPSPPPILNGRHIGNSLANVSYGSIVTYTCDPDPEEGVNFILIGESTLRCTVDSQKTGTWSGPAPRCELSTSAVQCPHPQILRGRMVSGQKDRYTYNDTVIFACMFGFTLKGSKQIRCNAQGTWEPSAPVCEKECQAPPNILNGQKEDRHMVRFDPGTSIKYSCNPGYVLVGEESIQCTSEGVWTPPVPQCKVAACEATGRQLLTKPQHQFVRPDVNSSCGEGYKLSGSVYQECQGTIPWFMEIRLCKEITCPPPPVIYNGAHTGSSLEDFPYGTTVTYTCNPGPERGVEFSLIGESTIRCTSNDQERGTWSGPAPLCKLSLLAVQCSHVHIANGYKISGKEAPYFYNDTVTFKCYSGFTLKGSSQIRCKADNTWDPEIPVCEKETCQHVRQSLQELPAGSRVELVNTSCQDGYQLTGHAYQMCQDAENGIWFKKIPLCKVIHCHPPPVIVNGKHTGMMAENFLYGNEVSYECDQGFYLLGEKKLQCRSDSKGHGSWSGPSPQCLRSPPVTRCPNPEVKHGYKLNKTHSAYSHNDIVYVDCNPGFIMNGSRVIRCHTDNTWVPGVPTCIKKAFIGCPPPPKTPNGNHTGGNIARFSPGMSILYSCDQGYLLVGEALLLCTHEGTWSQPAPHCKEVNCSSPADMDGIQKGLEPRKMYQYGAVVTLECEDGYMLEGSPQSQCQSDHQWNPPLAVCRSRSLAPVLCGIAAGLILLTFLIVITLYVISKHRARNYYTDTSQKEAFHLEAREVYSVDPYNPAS
The test is described as follows: Inhibition of Zymosan-C3 rosette formation in Raji cells. In kind it is cell-based. The conditions noted are these: 10^5 Raji cells; zero to 200 μg tested, amount for the value not stated. On the procedure: Fresh blood was collected from a healthy donor, maintained at room temperature for 2 hours, centrifuged at 2000×g for about 10 min and the resulting supernatant collected. Five mg of Zymosan A particles (Sigma Chemical Co., St. Louis, Mo.) were boiled for 30 min in 20 ml of 150 mM NaCl and washed three times in phosphate-buffered saline (PBS) to form activated particles. One mg of activated particles was admixed with 0.5 ml of the collected blood supernatant, the admixture was maintained at 37° C. for 30 minutes, and then the particles were washed 3 times in PBS. The washed particles were re-suspended in PBS at a concentration of 0.5 mg/ml to form a C3-coated Zymosan composition.
Cultures containing 10^5 Raji cells were admixed with 100 microliters (μl ) of culture medium containing varying amounts (zero to 200 μg) of C3 or IFNαA derived polypeptides (p7 and p2 prepared in Example 1) or rIFNα prepared in Example 3b and the admixture maintained at 37° C. for 30 minutes to allow the CR2 ligand polypeptides to bind any CR2 receptor present on the Raji cells. Thereafter, 50 μl of the C3-coated Zymosan composition were added to each cell culture. […] More than 3 rosettes per cell were counted as C3 specific binding. Inhibition is expressed as the percent decrease in bound rosettes when comparing binding in the presence or absence of admixed polypeptide.

For test [2], the target named is T2, CR2 (Homo sapiens, UniProt P20023).
T2 construct: CR2 is isolated from Raji cells (ATTC CCL 86); endogenous in cells; host or cells: Raji cells (ATCC CCL 86)
T2 sequence (P20023 21-1033): T1 sequence (P20023 21-1033)
Nature of the test: Inhibition of CR2 binding to rIFNα by competing polypeptides. The conditions noted are these: competing polypeptide at 100ug/ml; rIFNα solid phase, CR2 liquid phase. The method, then:
A binding reaction admixture containing rIFNα in the solid phase and CR2 in the liquid phase was prepared as described in Example 3c except that a competing CR2 ligand shown in Table 6 was also included in the admixture at a concentration of 100ug/ml. Thereafter, the binding assay was conducted as described in Example 3c to measure the amount of CR2 specifically bound to rIFNα.

Test [3] deals with rIFNα. The conditions noted are these: BSA added to the binding reaction admixture in place of CR2.
Experimental: Various amounts of affinity-purified recombinant IFNα(rIFNα) prepared in Example 3b was added to the wells of Falcon EIA plates in 50 μl of coupling buffer (100 mM NaHC03, pH 9.3) and maintained for 2 hours at 37° C. to allow the IFNα to absorb onto the walls of the wells. Subsequently, the wells were washed by 3-fold immersion in PBS containing Tween 20 at 0.05% (referred to as PBST) and then PBST was added to the wells and the wells were maintained for 1 hour at 37° C. as a saturation step. After the wash and saturation steps, twice-affinity-purified CR2, prepared as described in Example 2, was added to each well in about 50 ul of PBST to form a binding reaction admixture containing 50 nanograms (ng) the amount of CR2 per 50 ul. The admixture was maintained for 2 hours at 37° C. to allow the added CR2 in the liquid phase to specifically bind with the rIFNα present immobilized in the solid phase on the walls of the wells. The wells were then washed with PBST to remove unbound CR2. […] The formation of p-nitrophenol was determined by measuring optical absorbance at 405 nm in a Titertek ELISA reader (Titertek Multiskan MCC/340, Metea, Va.).

On to QLNDLEACV [p2, QLNDLEACV], for which, in test [1], the “Percent Inhibition of Zymosan-C3 Rosette Formation in Raji Cells” value came out at 55%. Testing at 100 µg/mL in test [2] gave an inhibition of 48%.

With QLNDMEACV [p6, QLNDMEACV], the inhibition (usually the drop in the measured response relative to a control, in per cent) at 100 µg/mL in test [2] came out at 0%.

The substance QLNNLEACV [p4, QLNNLEACV] returned an inhibition at 100 µg/mL in test [2] of 45%.

In the case of QLYNVEATS [p7, QLYNVEATS], the “Percent Inhibition of Zymosan-C3 Rosette Formation in Raji Cells” value in test [1] is 77%. The inhibition at 100 µg/mL in test [2] stood at 50%.

With SPGRGD [p10, SPGRGD], the inhibition at 100 µg/mL in test [2] is 0%.

For bovine serum albumin [BSA], the “Binding to solid-phase rIFNα (in words)” value in test [3] is listed as “no dose dependent binding”.
